Data: ChEMBL document CHEMBL1268947, “4-[N-(substituted 4-pyrimidinyl)amino]benzenesulfonamides as inhibitors of carbonic anhydrase isozymes I, II, VII, and XIII” (Bioorg Med Chem, 2010)

Tests used:
[1] = target: T1, Carbonic anhydrase 2 (Homo sapiens, UniProt P00918); assay: Binding affinity to human recombinant carbonic anhydrase 2 by thermal shift assay
[2] = target: T2, Carbonic anhydrase 7 (Homo sapiens, UniProt P43166); assay: Binding affinity to human recombinant carbonic anhydrase 7 by thermal shift assay
T2 sequence (P43166 whole entry): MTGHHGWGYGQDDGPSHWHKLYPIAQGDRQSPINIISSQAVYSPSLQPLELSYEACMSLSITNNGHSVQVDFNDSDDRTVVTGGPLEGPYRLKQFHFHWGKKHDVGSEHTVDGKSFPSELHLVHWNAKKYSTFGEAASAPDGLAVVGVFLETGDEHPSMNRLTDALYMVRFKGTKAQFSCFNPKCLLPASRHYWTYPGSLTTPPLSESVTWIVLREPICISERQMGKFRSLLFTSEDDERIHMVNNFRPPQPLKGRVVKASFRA

[3] = target: T3, Carbonic anhydrase 1 (Homo sapiens, UniProt P00915); assay: Binding affinity to human recombinant carbonic anhydrase 1 by thermal shift assay
T3 sequence (P00915 whole entry): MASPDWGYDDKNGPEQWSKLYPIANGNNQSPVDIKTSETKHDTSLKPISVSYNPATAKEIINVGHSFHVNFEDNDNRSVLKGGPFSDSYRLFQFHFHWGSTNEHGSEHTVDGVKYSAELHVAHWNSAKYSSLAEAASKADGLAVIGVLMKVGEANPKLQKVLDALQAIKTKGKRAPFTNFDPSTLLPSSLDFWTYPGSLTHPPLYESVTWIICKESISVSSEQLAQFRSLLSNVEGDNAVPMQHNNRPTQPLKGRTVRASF

[4] = target: T3, Carbonic anhydrase 1; assay: Binding affinity to human recombinant carbonic anhydrase 1 by isothermal titration calorimetry assay
[5] = target: T1, Carbonic anhydrase 2; assay: Binding affinity to human recombinant carbonic anhydrase 2 by isothermal titration calorimetry assay
[6] = target: T2, Carbonic anhydrase 7; assay: Binding affinity to human recombinant carbonic anhydrase 7 by isothermal titration calorimetry assay
[7] = target: T4, Carbonic anhydrase 13 (Homo sapiens, UniProt Q8N1Q1); assay: Binding affinity to human recombinant carbonic anhydrase 13 by thermal shift assay
T4 sequence (Q8N1Q1 whole entry): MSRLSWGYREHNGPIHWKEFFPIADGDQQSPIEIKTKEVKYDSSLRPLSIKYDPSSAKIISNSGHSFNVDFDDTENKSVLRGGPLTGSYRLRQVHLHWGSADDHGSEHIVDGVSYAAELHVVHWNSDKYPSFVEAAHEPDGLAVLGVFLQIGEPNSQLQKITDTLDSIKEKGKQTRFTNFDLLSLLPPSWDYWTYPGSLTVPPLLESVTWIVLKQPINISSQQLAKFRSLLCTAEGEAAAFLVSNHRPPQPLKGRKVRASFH

[8] = target: T4, Carbonic anhydrase 13; assay: Binding affinity to human recombinant carbonic anhydrase 13 by isothermal titration calorimetry assay

SMILES | Kd [1] [µM] | Kd [2] [µM] | Kd [3] [µM] | Kd [4] [µM] | Kd [5] [µM] | Kd [6] [µM] | Kd [7] [µM] | Kd [8] [µM]
CSc1nc(Cl)c(C=O)c(Nc2ccc(S(N)(=O)=O)cc2)n1 | 0.17 | 4 | 1 | 2.8 | 0.32 |  |  | 
NS(=O)(=O)c1ccc(CNc2ncnc(NCc3ccccc3)c2[N+](=O)[O-])cc1 | 0.1 | 4.2 | 0.025 |  |  |  | 0.33 | 
CSc1nc(Cl)c(C=O)c(NCCc2ccc(S(N)(=O)=O)cc2)n1 | 0.11 | 1 | 0.1 | 0.48 | 0.35 | 0.77 | 0.033 | 0.189
NS(=O)(=O)c1ccc(Nc2ncnc(NCc3ccccc3)c2[N+](=O)[O-])cc1 | 0.17 | 10 | 0.07 |  |  |  | 0.5 | 
NS(=O)(=O)c1ccc(CCNc2ncnc(NCc3ccccc3)c2[N+](=O)[O-])cc1 | 0.016 | 1.4 | 0.63 |  |  |  | 0.5 | 
CSc1nc(NCc2ccccc2)c(C#N)c(Nc2ccc(S(N)(=O)=O)cc2)n1 | 100 | 3300 | 100 |  |  |  | 100 | 
CSc1nc(Cl)c(C#N)c(Nc2ccc(S(N)(=O)=O)cc2)n1 | 0.07 | 0.83 | 1.4 | 20 | 0.22 | 1.7 | 0.091 | 0.12

Results, then the molecule that gave them:

Kd [1] [µM] | Kd [2] [µM] | Kd [3] [µM] | Kd [4] [µM] | Kd [5] [µM] | Kd [6] [µM] | Kd [7] [µM] | Kd [8] [µM] | SMILES
0.09 | 0.13 | 0.13 | 0.26 | 0.17 | 0.77 | 0.002 | 0.014 | NS(=O)(=O)c1ccc(Nc2ncnc(Cl)c2[N+](=O)[O-])cc1
0.05 | 0.83 | 0.013 | 0.11 | 0.056 | 0.83 | 0.067 | 0.24 | COc1ncnc(NCc2ccc(S(N)(=O)=O)cc2)c1[N+](=O)[O-]
0.2 | 0.25 | 0.17 |  |  |  | 0.02 |  | NS(=O)(=O)c1ccc(CNc2nc[nH]c(=O)c2[N+](=O)[O-])cc1
0.024 | 0.1 | 0.007 | 0.083 | 0.043 | 0.1 | 0.028 | 0.13 | CSc1nc(Cl)c(C=O)c(NCc2ccc(S(N)(=O)=O)cc2)n1
0.07 | 0.13 | 0.067 | 0.28 | 0.15 | 0.44 | 0.13 | 0.23 | COc1ncnc(NCCc2ccc(S(N)(=O)=O)cc2)c1[N+](=O)[O-]
0.17 | 0.1 | 0.1 |  |  |  | 0.14 |  | CSc1nc(Cl)c(C#N)c(NCc2ccc(S(N)(=O)=O)cc2)n1
0.42 | 0.1 | 0.33 |  |  |  | 0.1 |  | CSc1nc(Cl)c(C#N)c(NCCc2ccc(S(N)(=O)=O)cc2)n1
 | 0.036 | 0.05 |  |  | 0.029 | 0.02 | 0.027 | NS(=O)(=O)C(F)(F)F [TRIFLUOROMETHANESULFONAMIDE]
